The test system of this assay is MDA-MB-231 orthotopic xenografts. As to the kind of experiment: chemotherapy of MDA-MB-231 orthotopic xenografts: tumor volume, regression, survival. Format: in vivo, mice. Particulars: 0.32 mg/kg equivalents of MMAE, equimolar free MMAE. The source says: A) Tumor growth curve obtained from MDA-MB-231 bilateral tumor bearing mice that were either intravenously injected with 6.5 nanomoles of MMAE (red line), cRAD-PEG6-MMAE (green line), cRGD-MMP-MMAE (dark blue) or no injection (no treatment, light blue).
Monomethyl auristatin E (MMAE), a potent chemotherapeutic inhibitor of tubulin polymerization, was conjugated to an ACPP via a peptide linker, Val-Cit-(p-amido)benzyloxycarbonyl, which is cleavable by cathepsin B, an endolysosomal protease. Mice harboring MDA-MB-231 orthotopic xenografts were dosed with cRGD-ACPP-MMAE at 0.2 mg/kg equivalents MMAE (6.5 nanomoles peptide) every three days for a total of four doses and tumor volumes were measured at regular intervals. […] When the dose was increased to 0.32 mg/kg equivalents of MMAE, the dual targeted peptide caused 4 out of 8 tumors to regress completely, compared to 2 out of 8 for equimolar free MMAE. The ACPPs caused no weight loss or gross toxicity. […] Animal weights are illustrated in FIGS. 7, 9, and 11.

Molecules are shown by their SMILES. Non-standard residues stand in square brackets, D forms with d. Residues, ends and D or L forms follow the SMILES beside them. *: point of attachment. Dolaproine = CO[C@@H]([C@@H]1CCCN1)[C@@H](C)C(=O)O; Dil = CC[C@H](C)[C@H](NC)[C@@H](CC(=O)O)OC; X1 = C[C@@H](N*)[C@@H](O)c1ccccc1; NMeV = CN[C@H](C(=O)O)C(C)C

As to `CC[C@H](C)[C@@H]([C@@H](CC(=O)N1CCC[C@H]1[C@H](OC)[C@@H](C)C(=O)N[C@H](C)[C@@H](O)c1ccccc1)OC)N(C)C(=O)[C@@H](NC(=O)[C@@H](NC)C(C)C)C(C)C` [MMAE, Monomethyl auristatin E] (H-[NMeV]V[Dil][Dolaproine]-X1), the “tumors that regressed completely” value is listed as 2 out of 8.
